Patent publication US6413952B1, “Agonizing dimeric cell-surface receptors with a receptor binding moiety and chelating metal” (SmithKline Beecham Corporation, priority 1997, dated 2002)
Entries after “also recorded” stand apart in the source; their conditions may differ.

T1: G-CSF receptor (Mus musculus, UniProt P40223)
T1 construct: they express endogenous G-CSF receptors; endogenous in cells; host or cells: NFS60 murine myeloid cell line with a G-CSF-responsive luciferase reporter
T1 sequence (P40223 26-837): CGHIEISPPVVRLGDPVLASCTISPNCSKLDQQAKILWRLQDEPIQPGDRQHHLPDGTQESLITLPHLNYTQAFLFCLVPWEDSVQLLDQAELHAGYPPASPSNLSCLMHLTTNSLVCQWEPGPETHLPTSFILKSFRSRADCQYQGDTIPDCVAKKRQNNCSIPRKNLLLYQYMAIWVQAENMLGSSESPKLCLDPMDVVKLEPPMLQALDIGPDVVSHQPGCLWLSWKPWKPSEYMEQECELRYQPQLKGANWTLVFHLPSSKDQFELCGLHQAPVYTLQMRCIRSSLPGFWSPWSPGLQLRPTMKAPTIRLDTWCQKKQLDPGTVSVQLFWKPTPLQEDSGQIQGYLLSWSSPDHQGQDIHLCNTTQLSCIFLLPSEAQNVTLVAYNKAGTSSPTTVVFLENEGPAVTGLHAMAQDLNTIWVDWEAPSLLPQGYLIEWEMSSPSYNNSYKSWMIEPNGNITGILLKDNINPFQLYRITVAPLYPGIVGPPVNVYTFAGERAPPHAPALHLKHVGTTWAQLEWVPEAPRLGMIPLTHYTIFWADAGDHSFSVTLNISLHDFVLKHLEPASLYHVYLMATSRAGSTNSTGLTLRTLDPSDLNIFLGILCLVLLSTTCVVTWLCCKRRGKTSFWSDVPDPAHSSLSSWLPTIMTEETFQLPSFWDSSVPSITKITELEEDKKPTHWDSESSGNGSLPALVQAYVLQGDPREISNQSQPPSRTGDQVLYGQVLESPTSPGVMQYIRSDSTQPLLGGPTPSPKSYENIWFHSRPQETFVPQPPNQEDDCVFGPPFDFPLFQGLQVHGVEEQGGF


What was measured:
G-CSF receptor [1] = target: T1, G-CSF receptor; assay: Luciferase reporter gene assay on G-CSF-responsive NFS60 cell line; type: cell-based, murine; conditions: NFS60 cells, absence of zinc (FIG. 1)
Procedure: Activity of compound 1a is below the threshold of 150% over background. The study was performed as a Luciferase assay configured on the G-CSF-responsive NFS60 cell line as described in Tian et al., Science 281, 257-259 (1998). The experiments shown in FIGS. 2-8 used the same NFS60 cell line.
Compounds of the present invention are tested for potency as agonist of a dimeric cell-surface receptor in a Luciferase reporter gene assay such as described in Tian et al., Science 281, 257-259 (1998). For example, for G-CSF NFS60 cells (Holmes, et al., Proc. Natl. Acad. Sci. USA 82: 6687-6691 (1985)) are selected because they express endogenous G-CSF receptors closely matching the pattern of STAT (signal transducers and activators of transcription) activation observed in primary murine and human bone marrow cells.

G-CSF receptor [2] = target: T1, G-CSF receptor; assay: Luciferase assay on NFS60 cells in the presence of EDTA / metal chlorides; type: cell-based, murine; conditions: for effect of EDTA on agonist (luciferase) activity: EDTA 1.2 and 5 millimolar, media contained 1-5 uM zinc(II) (FIGS. 3, 4)
Procedure: FIG. 3 is an analysis of the effect of ethylenediaminetetraacetic acid (as used herein—EDTA) on the activity of Compound 1a (from Example 1) in NFS60 cells. Shown are luciferase response curves of Compound 1a at the indicated concentrations and in the presence of various concentrations of EDTA. […] The media in this assay contained a small amount (1-5 uM) of zinc(II).
FIG. 4 is an analysis of the effect of EDTA on the activity of recombinant G-CSF on NFS60 cells. Shown are luciferase response curves of recombinant G-CSF at the indicated concentrations and in the presents of various concentrations of EDTA. EDTA at both 1.2 and 5 millimolar has little effect on the activity of recombinant G-CSF in the assay.
FIGS. 5 and 6 depict an analysis of the activity of metal chlorides alone on the basal luciferase level of NFS60 cells. Shown are luciferase response curves of the indicated metal chlorides at various concentrations. None of the metals have a meaningful effect on the basal luciferase levels at concentrations equal or less than 10 micromolar.
FIGS. 7 and 8 show an analysis of the effect of metal chlorides on the EDTA depleted activity of Compound 1a on NFS60 cells. Shown are luciferase response curves as effected by the indicated metal chlorides. […] None of the other metals tested could overcome the inhibitory effect of EDTA.
In order to determine the requisiteness of metal chelation of small organic molecules to agonist activity at dimeric cell-surface receptors, the above luciferase assay was performed on the G-CSF receptor in the presence of EDTA. EDTA is a strong metal chelator and had as its only effect, the removal of zinc and other metals from the ligand-receptor interaction.

Molecule | luciferase activity over background (G-CSF receptor [1]) [%] | effect of EDTA on agonist (luciferase) activity (G-CSF receptor [2]) | effect of metal chlorides on the EDTA depleted luciferase activity of Compound 1a (G-CSF receptor [2]; 50 micromolar EDTA, metal 0.5-10 micromolar (FIGS. 7, 8))
c1ccc(C23NC(=Nc4nc5ccccc5[nH]4)NC2(c2ccccn2)NC(=Nc2nc4ccccc4[nH]2)N3)nc1 (stereo not shown) [Compound 1a, 2,5-Bis[2-benzimidazolylimino]-3a,6a-bis(2-pyridyl)-1,2,3,3a,4,5,6,6a-octahydroimidazo[4,5-d]imidazole] | < 150 | antagonized the activity; also recorded: abrogated | –
zinc (II) [reference compound] | – | – | can overcome the inhibition in luciferase activity
recombinant G-CSF: the natural ligand (i.e. G-CSF or recombinant G-CSF) of the G-CSF receptor (protein, UniProt P09919 31-207, looked up) Granulocyte …: TPLGPASSLPQSFLLKCLEQVRKIQGDGAALQEKLVSECATYKLCHPEELVLLGHSLGIPWAPLSSCPSQALQLAGCLSQLHSGLFLYQGLLQALEGISPELGPTLDTLQLDVADFATTIWQQMEELGMAPALQPTQGAMPAFASAFQRRAGGVLVASHLQSFLEVSYRVLRHLAQP | – | little effect; also recorded: not mediated by metal ions | –
